Series [1] deals with T1, MKK6 (Homo sapiens, UniProt P52564).
T1 construct: purchased Millipore KinaseProfiler (kinases); Cerep (receptors and ion channels)
The series can be described thus: Millipore kinase panel. The series is classed as biochemical. Particulars: read-out: % Control.

Series [2] deals with Cl- channel (GABA-gated). Kind of series: CEREP binding panel. The note with it: 10 μM, antagonist radioligand.
For series [3], the target named is T2, HCK (Homo sapiens, UniProt P08631).
T2 construct: purchased Millipore KinaseProfiler (kinases); Cerep (receptors and ion channels)
T2 sequence (P08631 whole entry): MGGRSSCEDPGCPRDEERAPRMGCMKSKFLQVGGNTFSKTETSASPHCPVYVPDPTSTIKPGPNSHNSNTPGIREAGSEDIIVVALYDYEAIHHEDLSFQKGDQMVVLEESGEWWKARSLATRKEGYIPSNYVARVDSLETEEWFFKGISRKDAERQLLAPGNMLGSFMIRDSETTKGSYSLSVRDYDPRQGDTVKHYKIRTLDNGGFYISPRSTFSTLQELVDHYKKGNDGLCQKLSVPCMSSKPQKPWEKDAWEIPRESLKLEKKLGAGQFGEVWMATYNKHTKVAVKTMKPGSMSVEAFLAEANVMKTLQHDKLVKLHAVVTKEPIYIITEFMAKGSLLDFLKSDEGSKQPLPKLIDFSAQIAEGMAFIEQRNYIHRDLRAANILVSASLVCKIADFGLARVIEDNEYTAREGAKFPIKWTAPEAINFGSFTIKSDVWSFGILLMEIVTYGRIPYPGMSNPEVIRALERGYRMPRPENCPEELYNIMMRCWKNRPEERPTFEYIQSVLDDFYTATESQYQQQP
Kind of series: Millipore kinase panel. The format is biochemical. Particulars: ATP at Km, read-out: % Control.

Series [4] has as its target T3, DRAK1 (Homo sapiens, UniProt Q9UEE5).
T3 construct: purchased Millipore KinaseProfiler (kinases); Cerep (receptors and ion channels)
The series can be described thus: Millipore kinase panel. The note with it: read-out: % Control. The series is classed as biochemical.

Series [5] deals with T4, PAK3 (Homo sapiens, UniProt O75914).
T4 construct: purchased Millipore KinaseProfiler (kinases); Cerep (receptors and ion channels)
The series can be described thus: Millipore kinase panel. The format is biochemical. The note with it: read-out: % Control.

The nature of series [6]: Plasma stability. The format is in vitro ADME.
For series [7], the target named is T5, ARG (Homo sapiens, UniProt P42684).
T5 construct: purchased Millipore KinaseProfiler (kinases); Cerep (receptors and ion channels)
The series can be described thus: Millipore kinase panel. Particulars: ATP at Km, read-out: % Control. The format is biochemical.

In series [8] the target is T6, GSK3BETA (Homo sapiens, UniProt P49841).
T6 construct: purchased Millipore
T6 sequence (P49841 whole entry): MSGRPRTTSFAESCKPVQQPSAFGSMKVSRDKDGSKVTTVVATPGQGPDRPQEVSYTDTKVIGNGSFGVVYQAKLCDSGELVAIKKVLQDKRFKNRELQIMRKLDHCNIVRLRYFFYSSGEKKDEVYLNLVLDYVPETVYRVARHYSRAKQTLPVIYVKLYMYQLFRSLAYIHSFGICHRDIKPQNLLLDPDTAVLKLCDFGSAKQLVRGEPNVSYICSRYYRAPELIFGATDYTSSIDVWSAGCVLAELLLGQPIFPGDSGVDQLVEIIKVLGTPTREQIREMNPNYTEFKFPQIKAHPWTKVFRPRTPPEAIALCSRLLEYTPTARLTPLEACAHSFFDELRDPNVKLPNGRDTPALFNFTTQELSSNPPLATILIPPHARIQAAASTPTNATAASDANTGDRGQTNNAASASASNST
Kind of series: Millipore kinase panel. The note with it: read-out: % Control. The format is biochemical.

For series [9], the target named is T7, MAPK2 (Homo sapiens, UniProt P28482).
T7 construct: purchased Millipore KinaseProfiler (kinases); Cerep (receptors and ion channels)
Kind of series: Millipore kinase panel. The format is biochemical. Particulars: ATP at Km, read-out: % Control.

Series [10] has as its target T8, RET(V804M) (Homo sapiens, UniProt P07949, V804M).
T8 construct: purchased Millipore KinaseProfiler (kinases); Cerep (receptors and ion channels)
Kind of series: Millipore kinase panel. The series is classed as biochemical. Particulars: read-out: % Control.

For series [11], the target named is T9, CK1GAMMA2 (Homo sapiens, UniProt P78368).
T9 construct: purchased Millipore KinaseProfiler (kinases); Cerep (receptors and ion channels)
Kind of series: Millipore kinase panel. The series is classed as biochemical. The note with it: read-out: % Control.

The test system of series [12] is BZD (central). Kind of series: CEREP binding panel. The note with it: 10 μM, agonist radioligand.
The target of series [13] is T10, TIE2(R849W) (Homo sapiens, UniProt Q02763, R849W).
T10 construct: purchased Millipore KinaseProfiler (kinases); Cerep (receptors and ion channels)
The series can be described thus: Millipore kinase panel. The note with it: read-out: % Control. The series is classed as biochemical.

Series [14] deals with T11, ABL (Q252H) (Homo sapiens, UniProt P00519, Q252H).
T11 construct: purchased Millipore KinaseProfiler (kinases); Cerep (receptors and ion channels)
Kind of series: Millipore kinase panel. Particulars: read-out: % Control. The series is classed as biochemical.

Series [15] addresses T12, ABL(Y253F) (Homo sapiens, UniProt P00519, Y253F).
T12 construct: purchased Millipore KinaseProfiler (kinases); Cerep (receptors and ion channels)
The series can be described thus: Millipore kinase panel. The format is biochemical. The note with it: read-out: % Control.

In series [16] the target is T13, IR (Homo sapiens, UniProt P06213).
T13 construct: purchased Millipore KinaseProfiler (kinases); Cerep (receptors and ion channels)
The series can be described thus: Millipore kinase panel. The format is biochemical. The note with it: read-out: % Control.

The target of series [17] is T14, PI3 KINASE (H1047R/P85A) (Homo sapiens, UniProt P42336, H1047R).
T14 construct: purchased Millipore KinaseProfiler (kinases); Cerep (receptors and ion channels)
Kind of series: Millipore kinase panel. The note with it: read-out: % Control. The format is biochemical.

Series [18] deals with T15, CDK1/CYCLINB (Homo sapiens, UniProt P06493).
T15 construct: purchased Millipore KinaseProfiler (kinases); Cerep (receptors and ion channels)
Kind of series: Millipore kinase panel. The format is biochemical. The note with it: read-out: % Control.

The target of series [19] is T16, CAMKIDELTA (Homo sapiens, UniProt Q8IU85).
T16 construct: purchased Millipore KinaseProfiler (kinases); Cerep (receptors and ion channels)
Kind of series: Millipore kinase panel. The format is biochemical. The note with it: read-out: % Control.

Series [20] concerns the target hERG (Homo sapiens, UniProt Q12809). The series can be described thus: hERG inhibition.
Series [21] has as its target T17, EGFR(T790M) (Homo sapiens, UniProt P00533, T790M).
T17 construct: purchased Millipore KinaseProfiler (kinases); Cerep (receptors and ion channels)
The series can be described thus: Millipore kinase panel. The series is classed as biochemical. The note with it: read-out: % Control.

For series [22], the target named is T18, PI3K DELTA (Homo sapiens, UniProt O00329).
T18 construct: purchased Millipore KinaseProfiler (kinases); Cerep (receptors and ion channels)
The series can be described thus: Millipore kinase panel. Particulars: read-out: % Control. The series is classed as biochemical.

Series [23] has as its target T19, PKBALPHA (Homo sapiens, UniProt P31749).
T19 construct: purchased Millipore KinaseProfiler (kinases); Cerep (receptors and ion channels)
Kind of series: Millipore kinase panel. The format is biochemical. The note with it: read-out: % Control.

The target of series [24] is T20, PDGFRALPHA(V561D) (Homo sapiens, UniProt P16234, V561D).
T20 construct: purchased Millipore KinaseProfiler (kinases); Cerep (receptors and ion channels)
Kind of series: Millipore kinase panel. The series is classed as biochemical. Particulars: read-out: % Control.

Series [25] deals with T21, MTOR/FKBP12 (Homo sapiens, UniProt P42345).
T21 construct: purchased Millipore KinaseProfiler (kinases); Cerep (receptors and ion channels)
T21 sequence (P42345 1362-2549 limits assumed): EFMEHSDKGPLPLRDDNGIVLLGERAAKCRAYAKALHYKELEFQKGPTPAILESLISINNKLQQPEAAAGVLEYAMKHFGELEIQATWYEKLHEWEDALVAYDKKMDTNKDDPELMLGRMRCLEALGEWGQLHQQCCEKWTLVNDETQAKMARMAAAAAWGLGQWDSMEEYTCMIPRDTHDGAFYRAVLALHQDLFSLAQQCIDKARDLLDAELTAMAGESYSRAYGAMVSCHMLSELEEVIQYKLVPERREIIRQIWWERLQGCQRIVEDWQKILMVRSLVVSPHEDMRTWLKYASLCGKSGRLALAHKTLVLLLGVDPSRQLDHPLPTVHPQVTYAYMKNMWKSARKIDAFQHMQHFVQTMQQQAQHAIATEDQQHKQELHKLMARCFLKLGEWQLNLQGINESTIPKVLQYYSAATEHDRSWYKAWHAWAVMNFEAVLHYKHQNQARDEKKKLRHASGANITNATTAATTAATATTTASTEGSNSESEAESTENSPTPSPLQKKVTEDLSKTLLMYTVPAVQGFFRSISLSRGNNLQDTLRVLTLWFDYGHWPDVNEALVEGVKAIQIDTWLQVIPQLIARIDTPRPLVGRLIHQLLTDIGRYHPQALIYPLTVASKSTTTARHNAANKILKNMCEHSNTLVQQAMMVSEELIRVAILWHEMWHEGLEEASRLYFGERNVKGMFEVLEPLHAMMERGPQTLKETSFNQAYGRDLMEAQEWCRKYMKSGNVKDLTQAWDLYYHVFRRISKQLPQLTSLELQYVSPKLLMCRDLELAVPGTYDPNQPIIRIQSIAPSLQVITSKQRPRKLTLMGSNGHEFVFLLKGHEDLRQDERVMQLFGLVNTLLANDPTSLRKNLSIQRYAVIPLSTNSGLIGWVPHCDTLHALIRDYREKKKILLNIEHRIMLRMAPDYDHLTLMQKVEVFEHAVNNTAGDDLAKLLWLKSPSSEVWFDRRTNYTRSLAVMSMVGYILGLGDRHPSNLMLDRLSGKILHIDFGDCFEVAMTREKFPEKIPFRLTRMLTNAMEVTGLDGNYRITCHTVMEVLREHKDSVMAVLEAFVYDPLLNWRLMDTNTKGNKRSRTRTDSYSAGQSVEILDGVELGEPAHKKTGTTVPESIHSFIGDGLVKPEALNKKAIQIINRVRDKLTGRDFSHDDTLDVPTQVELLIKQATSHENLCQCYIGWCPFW
Kind of series: Millipore kinase panel. The format is biochemical. Particulars: read-out: % Control.

Series [26] has as its target T22, ABL (M351T) (Homo sapiens, UniProt P00519, M351T).
T22 construct: purchased Millipore KinaseProfiler (kinases); Cerep (receptors and ion channels)
The series can be described thus: Millipore kinase panel. The format is biochemical. Particulars: read-out: % Control.

Series [27] concerns the target T23, SRC(1-530) (Homo sapiens, UniProt P12931).
T23 construct: purchased Millipore KinaseProfiler (kinases); Cerep (receptors and ion channels)
The series can be described thus: Millipore kinase panel. The series is classed as biochemical. Particulars: read-out: % Control.

Series [28] has as its target T24, PDGFRALPHA(D842V) (Homo sapiens, UniProt P16234, D842V).
T24 construct: purchased Millipore KinaseProfiler (kinases); Cerep (receptors and ion channels)
Kind of series: Millipore kinase panel. The note with it: read-out: % Control. The series is classed as biochemical.

In series [29] the target is CYP450 1A2 (Homo sapiens, UniProt P05177). Kind of series: CYP450 inhibition.
For series [30], the target named is T25, PKCIOTA (Homo sapiens, UniProt P41743).
T25 construct: purchased Millipore KinaseProfiler (kinases); Cerep (receptors and ion channels)
The series can be described thus: Millipore kinase panel. The note with it: read-out: % Control. The format is biochemical.

Series [31] concerns the target T26, CHK2(I157T) (Homo sapiens, UniProt O96017, I157T).
T26 construct: purchased Millipore KinaseProfiler (kinases); Cerep (receptors and ion channels)
Kind of series: Millipore kinase panel. Particulars: read-out: % Control. The series is classed as biochemical.

Series [32] addresses T27, TAO2 (Homo sapiens, UniProt Q9UL54).
T27 construct: purchased Millipore KinaseProfiler (kinases); Cerep (receptors and ion channels)
The series can be described thus: Millipore kinase panel. The series is classed as biochemical. Particulars: read-out: % Control.

The target in series [33] is T28, SRC(T341M) (Homo sapiens, UniProt P12931, T341M).
T28 construct: purchased Millipore KinaseProfiler (kinases); Cerep (receptors and ion channels)
Kind of series: Millipore kinase panel. The format is biochemical. The note with it: read-out: % Control.

The target of series [34] is T29, CDK5/P35 (Homo sapiens, UniProt Q00535).
T29 construct: purchased Millipore KinaseProfiler (kinases); Cerep (receptors and ion channels)
Kind of series: Millipore kinase panel. The format is biochemical. Particulars: read-out: % Control.

The target in series [35] is CYP450 3A4 (Homo sapiens, UniProt P08684). Kind of series: CYP450 inhibition. The series is classed as in vitro ADME.
The target of series [36] is T30, AURKC (Homo sapiens, UniProt Q9UQB9).
T30 construct: purchased Millipore KinaseProfiler (kinases); Cerep (receptors and ion channels)
T30 sequence (Q9UQB9 whole entry): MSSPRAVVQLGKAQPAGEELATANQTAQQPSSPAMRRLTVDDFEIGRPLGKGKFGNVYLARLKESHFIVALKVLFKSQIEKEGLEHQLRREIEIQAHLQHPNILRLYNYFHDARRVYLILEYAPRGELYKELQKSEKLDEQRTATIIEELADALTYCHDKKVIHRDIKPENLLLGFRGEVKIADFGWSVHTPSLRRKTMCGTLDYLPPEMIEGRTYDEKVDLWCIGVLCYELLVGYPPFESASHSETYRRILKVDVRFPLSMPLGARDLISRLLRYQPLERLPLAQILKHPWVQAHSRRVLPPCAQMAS
The series can be described thus: Millipore kinase panel. The series is classed as biochemical. The note with it: read-out: % Control.

In series [37] the target is T31, MER (Homo sapiens, UniProt Q12866).
T31 construct: purchased Millipore KinaseProfiler (kinases); Cerep (receptors and ion channels)
The series can be described thus: Millipore kinase panel. The note with it: read-out: % Control. The format is biochemical.

Series [38] has as its target T32, SYK (Homo sapiens, UniProt P43405).
T32 construct: purchased Millipore KinaseProfiler (kinases); Cerep (receptors and ion channels)
Kind of series: Millipore kinase panel. The series is classed as biochemical. Particulars: read-out: % Control.

Series [39] concerns the target T33, IGF-1R (Homo sapiens, UniProt P08069).
T33 construct: purchased Millipore KinaseProfiler (kinases); Cerep (receptors and ion channels)
The series can be described thus: Millipore kinase panel. The series is classed as biochemical. Particulars: read-out: % Control.

Series [40] has as its target T34, PI3K BETA (Homo sapiens, UniProt P42338).
T34 construct: purchased Millipore KinaseProfiler (kinases); Cerep (receptors and ion channels)
The series can be described thus: Millipore kinase panel. The format is biochemical. The note with it: read-out: % Control.

Series [41] concerns the target T35, CK1GAMMA3 (Homo sapiens, UniProt Q9Y6M4).
T35 construct: purchased Millipore KinaseProfiler (kinases); Cerep (receptors and ion channels)
Kind of series: Millipore kinase panel. The format is biochemical. The note with it: read-out: % Control.

In series [42] the target is T36, DDR2 (Homo sapiens, UniProt Q16832).
T36 construct: purchased Millipore KinaseProfiler (kinases); Cerep (receptors and ion channels)
The series can be described thus: Millipore kinase panel. The format is biochemical. Particulars: read-out: % Control.

The structures appear in SMILES notation.

Here are results for 2 compounds from publication PMC4767141, “Discovery of Potent, Orally Bioavailable, Small-Molecule Inhibitors of WNT Signaling from a Cell-Based Pathway Screen” (Journal of Medicinal Chemistry, 2015).

T1 sequence (P52564 whole entry): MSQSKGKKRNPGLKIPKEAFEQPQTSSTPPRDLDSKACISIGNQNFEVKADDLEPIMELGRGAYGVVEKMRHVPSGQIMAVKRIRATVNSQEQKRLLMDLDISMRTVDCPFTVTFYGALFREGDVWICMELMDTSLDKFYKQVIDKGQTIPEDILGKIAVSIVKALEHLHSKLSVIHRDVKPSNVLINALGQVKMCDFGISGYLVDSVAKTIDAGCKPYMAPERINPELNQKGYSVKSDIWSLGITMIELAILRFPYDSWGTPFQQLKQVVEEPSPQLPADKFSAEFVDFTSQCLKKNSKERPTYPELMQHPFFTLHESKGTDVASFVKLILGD
T34 sequence (P42338 whole entry): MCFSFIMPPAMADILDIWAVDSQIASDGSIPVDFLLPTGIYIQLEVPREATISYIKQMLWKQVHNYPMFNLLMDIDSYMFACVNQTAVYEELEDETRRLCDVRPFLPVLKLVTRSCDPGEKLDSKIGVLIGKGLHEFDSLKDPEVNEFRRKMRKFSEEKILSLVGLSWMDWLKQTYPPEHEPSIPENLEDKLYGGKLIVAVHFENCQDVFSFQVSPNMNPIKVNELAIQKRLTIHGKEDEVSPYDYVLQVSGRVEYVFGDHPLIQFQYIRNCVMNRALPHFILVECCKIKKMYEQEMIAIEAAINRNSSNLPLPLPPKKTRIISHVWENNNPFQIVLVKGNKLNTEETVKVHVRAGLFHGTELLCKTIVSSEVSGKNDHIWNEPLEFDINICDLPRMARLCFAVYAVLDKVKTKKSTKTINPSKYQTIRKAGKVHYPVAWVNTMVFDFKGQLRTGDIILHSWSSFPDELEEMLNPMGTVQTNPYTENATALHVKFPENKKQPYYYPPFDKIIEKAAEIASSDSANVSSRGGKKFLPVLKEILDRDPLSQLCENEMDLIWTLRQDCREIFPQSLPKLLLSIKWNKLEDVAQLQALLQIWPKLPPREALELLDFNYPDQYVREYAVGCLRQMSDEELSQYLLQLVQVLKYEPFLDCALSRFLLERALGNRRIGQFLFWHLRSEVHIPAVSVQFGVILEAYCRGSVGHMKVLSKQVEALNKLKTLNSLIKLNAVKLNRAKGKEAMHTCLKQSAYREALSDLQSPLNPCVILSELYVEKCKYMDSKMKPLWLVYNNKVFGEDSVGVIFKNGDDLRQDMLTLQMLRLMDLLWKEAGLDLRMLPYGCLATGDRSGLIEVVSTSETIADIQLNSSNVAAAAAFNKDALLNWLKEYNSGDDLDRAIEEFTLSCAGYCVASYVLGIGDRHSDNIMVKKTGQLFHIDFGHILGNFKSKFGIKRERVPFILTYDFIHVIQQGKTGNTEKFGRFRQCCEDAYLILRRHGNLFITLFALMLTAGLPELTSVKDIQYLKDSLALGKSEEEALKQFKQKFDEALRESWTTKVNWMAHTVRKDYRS
T34 sequence (P27986 whole entry partner): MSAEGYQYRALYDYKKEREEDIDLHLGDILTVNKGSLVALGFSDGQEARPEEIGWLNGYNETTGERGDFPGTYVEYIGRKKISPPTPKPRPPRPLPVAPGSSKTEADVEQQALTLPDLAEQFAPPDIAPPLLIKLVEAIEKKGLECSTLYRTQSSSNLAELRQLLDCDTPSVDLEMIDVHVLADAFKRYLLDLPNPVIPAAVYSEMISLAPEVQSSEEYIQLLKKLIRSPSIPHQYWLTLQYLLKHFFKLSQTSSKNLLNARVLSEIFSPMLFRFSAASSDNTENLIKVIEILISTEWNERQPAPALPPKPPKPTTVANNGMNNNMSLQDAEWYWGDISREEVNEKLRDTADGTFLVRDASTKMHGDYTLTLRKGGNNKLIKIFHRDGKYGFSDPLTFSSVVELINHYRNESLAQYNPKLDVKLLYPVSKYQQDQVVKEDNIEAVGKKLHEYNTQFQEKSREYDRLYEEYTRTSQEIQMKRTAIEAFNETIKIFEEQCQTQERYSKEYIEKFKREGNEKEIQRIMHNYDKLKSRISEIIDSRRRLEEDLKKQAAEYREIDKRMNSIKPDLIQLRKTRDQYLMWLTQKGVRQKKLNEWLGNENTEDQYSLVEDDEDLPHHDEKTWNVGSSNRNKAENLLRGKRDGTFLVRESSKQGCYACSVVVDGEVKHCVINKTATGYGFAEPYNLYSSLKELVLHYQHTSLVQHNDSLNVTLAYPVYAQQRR
T35 sequence (Q9Y6M4 whole entry): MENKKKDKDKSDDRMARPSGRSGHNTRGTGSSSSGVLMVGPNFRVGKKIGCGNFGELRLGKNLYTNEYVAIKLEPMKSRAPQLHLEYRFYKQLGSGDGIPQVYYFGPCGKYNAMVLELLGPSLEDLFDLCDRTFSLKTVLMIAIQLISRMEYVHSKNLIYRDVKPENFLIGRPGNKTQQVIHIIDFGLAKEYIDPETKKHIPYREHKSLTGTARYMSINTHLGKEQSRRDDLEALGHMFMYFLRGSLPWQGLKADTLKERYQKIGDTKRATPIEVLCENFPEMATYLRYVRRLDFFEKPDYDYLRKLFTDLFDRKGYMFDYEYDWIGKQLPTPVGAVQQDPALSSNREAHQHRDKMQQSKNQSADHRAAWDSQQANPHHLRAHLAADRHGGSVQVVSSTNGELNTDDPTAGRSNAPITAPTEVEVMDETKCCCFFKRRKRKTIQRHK

Turning to `O=C1NCCC12CCN(c1c(Cl)cncc1-c1ccc(N3CCOCC3)cc1)CC2` [Compound 44, 8-(3-Chloro-5-(4-morpholin-4-ylphenyl)pyridin-4-yl)-2,8-diazaspiro[4.5]decan-1-one], the remaining activity at 1 µM in series [1] is 48%; in series [3] it was 3%; in [4] it was 4%; in [5], 17%; in [7], -12%; in series [8], -25%. In addition, the remaining activity at 1 µM in [9] worked out at 10%. Also, the “% Inhibition of Control Specific Binding” value in [2] turned out to be 14%. Also, the plasma instability entry in series [6] was “no plasma instability was observed”.

`Cn1cc(-c2ccc(-c3cncc(Cl)c3N3CCC4(CCNC4=O)CC3)cc2)cn1` [Compound 74, 8-(3-Chloro-5-(4-(1-methyl-1H-pyrazol-4-yl)phenyl)pyridin-4-yl)-2,8-diazaspiro[4.5]decan-1-one]: the remaining activity at 1 µM in [10] is -8%; in series [11], 10%; in [13] it was -6%; in series [14], -1%; in series [15], -11%; in [16], -8%. Besides, the remaining activity at 1 µM was -1% in series [17]; -9% in series [18]; -4% in [19]; 0% in series [21]; -2% in [22]; 2% in series [23]. Besides, the remaining activity at 1 µM in series [24] was 6%; in series [25], 11%; in series [26], 5%; in [27], -8%; in series [28], -4%; in series [30], -25%. The remaining activity at 1 µM is 2% in series [31]; -15% in series [32]; -6% in series [33]; -16% in series [34]; -10% in series [36]; -6% in series [37]. Besides, the remaining activity at 1 µM came out at 5% in series [38]; 5% in series [39]; 0% in series [40]; 1% in [41]; 5% in series [42]. The “% Inhibition of Control Specific Binding” value in series [12] was 18%. In addition, the half-maximal inhibitory concentration (IC50) in series [20] was more than 10 µM; in series [29], more than 20 µM; in series [35] it was 11.4 µM.
